# Test results: patent publication US9221853B2, “Glyphosate dimethylamine salt crystal, preparation method and use thereof” (ZHEJIANG WYNCA CHEMICAL INDUSTRY GROUP CO., LTD., priority 2009, dated 2015)
# Structures can show the parent of a compound that is named as a salt.
# How the values were obtained:
# weeds = conditions: field plot 2 m×2.5 m, spray, effective ingredient 60 g/mou (based on glyphosate) diluted by water to 30 l/mou
# Experimental: A sample was taken in an effective ingredient amount of 60 g/mou (based on glyphosate), and was diluted by water to 30 l/mou. The resulting diluted liquor was evenly sprayed into a test field plot with an area of 2 m×2.5 m, repeated twice. […] A CD Observation Method was used to make records.
# [1] = test system: annual weeds: Common Crabgrass (Digitaria sanguinalis), Goosegrass (Eleusine indica), Bitter Fleabane (Erigeron acer); conditions: CD Observation Method visual score (2.0-10.0); 60 g/mou glyphosate, field spray; observed 2.5, 5, 7 and 11 days after application
# Text: (§1) A CD Observation Method was used to make records.
# (§2) Assessment Criteria of the CD Observation Method
# (§3) A visual method was used with the following criteria: • 2.0 mild poisoning symptom in a spot of leaves • 4.0 a few leaves lost green or turned yellow while the plant growth was substantially normal • 6.0 leaves lost green or turned yellow or some leaves withered, while the stalk was nearly normal, and was yet able to grow slowly • 8.0 caulicle or inflorescence and rachis of leaves withered; most of stalk turned yellow or lost green mildly and was unable to grow normally; the plant died locally • 10.0 the whole plant died
# [2] = test system: perennial weeds: Alligator Alternanthera Herb (Alternanthera philoxeroides); conditions: CD Observation Method visual score (2.0-10.0); 60 g/mou glyphosate, field spray; observed 2.5, 5, 7 and 11 days after application
# Text: as §1, §2, §3
smiles,measurement,setting,value
O=C(O)CNCP(=O)(O)O [dimethylamine salt of N-phosphonomethyl glycine],Days for weeds to die,weeds,9~11 d
same,Control on annual weeds,[1],9.6
same,Control on perennial weeds,[2],9.4
